Assay results taken from US10544133B2, “Heteroaryl substituted pyridyl compounds useful as kinase modulators” (BRISTOL-MYERS SQUIBB COMPANY, priority 2012, dated 2020).
Where two headings read alike, the source gives them in different places.

Test system: TLR2 induced IL-6 in peripheral blood mononuclear cells (PBMCs)
Test: PBMC TLR2 Induced IL-6 Assay
Type: cell-based
Conditions: lipoteichoic acid 10 μg/ml 5 h, IL-6 by ELISA
Procedure: PBMC TLR2 Induced IL-6 Assay
Peripheral blood mononuclear cells (PBMCs) were isolated from human blood containing the anti-coagulant EDTA (2.5 mM) by centrifugation over a FICOLL® gradient. PBMCs (250000 cells/well) were cultured in assay media (RPMI with 10% heat inactivated FCS) with compounds for 30 minutes at 37° C. in a 5% CO2 incubator. Following pretreatment with compounds, cells were stimulated for 5 hours with 10 μg/ml lipoteichoic acid (Invivogen, San Diego, Calif.), a TLR2 agonist. At the end of the culture, plates were centrifuged at 1800 rpm for 10 minutes to pellet the cells. Supernatants were harvested and analyzed for IL-6 levels by ELISA (BD Biosciences, San Jose, Calif.).

[1] = Homo sapiens, PBMC, 5 h, value marked * = EC50, read-out: Cell EC50 (*)

CC(C)(O)[C@H](F)CNC(=O)c1cnc(Nc2ncc(C#N)cc2F)cc1NC1COC1 [Example 164]
EC50 [1]: 174 nM

Cc1cnc(Nc2cc(NC(C)C)c(C(=O)NC[C@@H](F)C(C)(C)O)cn2)c(F)c1 [Example 129]
EC50 [1]: 398 nM

CC(C)(O)[C@H](F)CNC(=O)c1cnc(Nc2ncc(C#N)cc2F)cc1NC1CCCOC1 (some centres unmarked) [Example 98]
IC50 (Homo sapiens, PBMC, 5 h, value without asterisk, read-out: Cell IC50): 690 nM

CC(C)(O)[C@H](F)CNC(=O)c1cnc(Nc2ncc(C#N)c(N)n2)cc1NC1CC1 [Example 154]
EC50 (human PBMCs, value marked * = EC50, read-out: Cell EC50 (*)): 529 nM

CC(C)Nc1cc(Nc2ncc(C#N)cc2Cl)ncc1C(=O)NC1CCC(C(C)(C)O)CC1 (centres unmarked) [Example 102]
EC50 [1]: 71 nM
